US10160762B2, “6-alkyl dihydropyrazolopyrimidinone compounds as PDE2 inhibitors” (Merck Sharp & Dohme Corp., priority 2015, dated 2018)
Like-named read-outs stand apart in the source and are kept apart here.

Target: T1, Rhesus PDE2A3 (Macaca mulatta, UniProt B3VTJ2)
T1 construct: made in house; host or cells: AD293 cells, transient transfection; supernatant of sonicated lysate
T1 sequence (B3VTJ2 1-941): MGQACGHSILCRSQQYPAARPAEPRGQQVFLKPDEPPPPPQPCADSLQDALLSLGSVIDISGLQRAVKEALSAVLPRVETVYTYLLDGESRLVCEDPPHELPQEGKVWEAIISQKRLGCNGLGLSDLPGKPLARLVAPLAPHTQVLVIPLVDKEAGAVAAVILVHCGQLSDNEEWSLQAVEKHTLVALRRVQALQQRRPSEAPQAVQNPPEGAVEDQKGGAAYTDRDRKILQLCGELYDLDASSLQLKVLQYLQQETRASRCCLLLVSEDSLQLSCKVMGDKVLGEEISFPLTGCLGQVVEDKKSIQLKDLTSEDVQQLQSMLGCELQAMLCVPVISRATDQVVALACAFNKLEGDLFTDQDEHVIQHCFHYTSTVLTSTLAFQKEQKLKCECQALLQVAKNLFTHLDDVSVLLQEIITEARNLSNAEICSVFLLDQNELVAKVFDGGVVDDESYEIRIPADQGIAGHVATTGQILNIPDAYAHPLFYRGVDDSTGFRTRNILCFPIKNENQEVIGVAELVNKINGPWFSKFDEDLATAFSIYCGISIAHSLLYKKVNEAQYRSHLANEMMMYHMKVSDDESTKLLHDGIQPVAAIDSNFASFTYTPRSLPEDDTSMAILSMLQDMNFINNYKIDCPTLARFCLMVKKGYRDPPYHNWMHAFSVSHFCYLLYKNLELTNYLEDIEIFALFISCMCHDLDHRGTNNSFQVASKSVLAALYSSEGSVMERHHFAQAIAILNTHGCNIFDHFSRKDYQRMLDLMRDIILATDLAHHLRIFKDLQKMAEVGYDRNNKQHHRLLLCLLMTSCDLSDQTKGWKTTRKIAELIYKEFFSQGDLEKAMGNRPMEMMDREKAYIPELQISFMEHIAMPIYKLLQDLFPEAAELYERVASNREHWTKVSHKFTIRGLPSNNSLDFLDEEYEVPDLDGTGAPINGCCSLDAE
Test: PDE2 fluorescence polarization (IMAP FP) inhibition assay, rhesus PDE2A3
Assay type: biochemical, rhesus macaque
In short: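 Enzyme source was the lysate supernatant of AD293 cells transiently expressing rhesus PDE2A3, diluted to give 20% conversion of 50 nM FAM-cAMP, with 1 µM cGMP as activator. Buffer was 10 mM Tris pH 7.2, 10 mM MgCl2, 1 mM DTT.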

- Ki (Lab A, read-out: Rhesus PDE2 Ki (nM) Lab A): 1.6 nM
- Ki (Lab B, read-out: Rhesus PDE2 Ki (nM) Lab B): 3.5 nM
Compound: Cc1nc2c(c(CO)nn2C(c2ccc(C(F)(F)F)cc2)C(F)(F)F)c(=O)[nH]1 (centres unmarked) [Example 6, 3-(Hydroxymethyl)-6-methyl-1-(2,2,2-trifluoro-1-(4-(trifluoromethyl)phenyl)ethyl)-1H-pyrazolo[3,4-d]pyrimidin-4(5H)-one]
